# Assay results from patent publication US20230357272A1, “OCTAHYDROPYRAZINODIAZANAPHTHYRIDINE DIONE COMPOUNDS” (MEDSHINE DISCOVERY INC., priority 2020, published 2023).
# Assays:
# NCI-H358 cells = assay: Anti-proliferation experiment of H358 cells (CellTiter-Glo); assay type: cell-based; details: Homo sapiens, 120 h, 5 days
# Protocol: RPMI-1640 culture medium, penicillin/streptomycin antibiotics purchased from Wisent, and fetal bovine serum purchased from Biosera. CellTiter-Glo (chemiluminescence detection reagent for cell viability) reagent purchased from Promega. NCI-H358 cell line purchased from the Cell Bank of the Chinese Academy of Sciences. Nivo multi-label analyzer (PerkinElmer).
# NCI-H358 cells were seeded in a white 96-well plate with 80 μL of cell suspension per well, which contained 4000 NCI-H358 cells. The cell plate was incubated overnight in a carbon dioxide incubator.
# The compounds to be tested were diluted 3-fold with a row gun to the ninth concentration, that is, from 2 mM to 304 nM, and a double-duplication experiment was set up. 78 μL of culture medium was added to a middle plate, and then 2 μL of gradient diluted compound per well was transferred to the middle plate according to the corresponding position. After being thoroughly mixed, 20 μL per well was transferred to the cell plate. The concentration range of the compound transferred to the cell plate was 10 μM to 1.52 nM. The cell plate was placed in the carbon dioxide incubator for 5 days. Another cell plate was prepared, and the signal value was read as the maximum value (Max value in the equation below) on the day of administration to participate in data analysis. 25 μL of cell viability chemiluminescence detection reagent was added to each well of the cell plate, and incubated at room temperature for 10 minutes to stabilize the luminescence signal. A multi-label analyzer was used for reading.
# 25 μL of cell viability chemiluminescence detection reagent was added to each well of the cell plate, and incubated at room temperature for 10 minutes to stabilize the luminescence signal. A multi-label analyzer was used for reading.
# Using the equation (Sample−Min)/(Max−Min)*100% to convert the raw data into inhibition rate, and the value of IC50 might be obtained by curve fitting with four parameters (obtained by “log (inhibitor) vs. response—Variable slope” mode in GraphPad Prism). Table 1 provides the inhibitory activity of the compounds of the present disclosure on the proliferation of NCI-H358 cells.
# [1] = system: human colon cancer CO-04-0070 subcutaneous xenograft tumor; assay: In vivo pharmacodynamic study on human colon cancer CO-04-0070 subcutaneous xenograft tumor model; parameters: species or system BALB/c nude mouse; details: for Tumor volume (Day 0): Day 0 (at grouping); for Tumor volume (Day 0) / Tumor volume (Day 20) / Tumor weight (Day 20): mean ± SEM, n = 8; for RTV (Day 20) / T/C (%) (Day 20) / T/Cweight / TGI (%) (Day 20) / Tumor volume (Day 20) / Tumor weight (Day 20): Day 20
# Protocol: To evaluate the in vivo efficacy of the compound in the human colon cancer CO-04-0070 subcutaneous xenograft tumor BALB/c nude mouse model.
# Each animal was inoculated with a CO-04-0070 FP7 tumor block with a volume of about 30 mm^3 in the right back position. When the mean tumor volume reached 151 mm^3, random grouping was used and the administration was started.
# Tumor diameters were measured with vernier calipers twice a week. The calculation formula of tumor volume was: V=0.5a×b^2, wherein a and b represented the long and short diameters of the tumor, respectively.
# The anti-tumor efficacy of the compounds was evaluated by TGI (%) or relative tumor proliferation rate T/C (%). Relative tumor proliferation rate T/C (%)=TRTV/CRTV×100% (TRTV: mean RTV of the treatment group; CRTV: mean RTV of the negative control group). The relative tumor volume (RTV) was calculated according to the results of tumor measurement, and the calculation formula was RTV=Vt/V0, wherein V0 was the tumor volume measured at the time of group administration (that is, D0), Vt was the tumor volume at a certain measurement, and the data of TRTV and CRTV were taken on the same day. TGI (%), reflecting the tumor growth inhibition rate.
# TGI (%)=[1−(mean tumor volume at the end of administration in a treatment group−mean tumor volume at the beginning of administration in the treatment group)/(mean tumor volume at the end of treatment in vehicle control group−mean tumor volume at the beginning of treatment in vehicle control group)]×100%.
# After the experiment, the tumor weight would be detected, and the percentage of T/Cweight would be calculated. Tweight and Cweight represented the tumor weight of the administration group and the vehicle control group, respectively.
smiles,measurement,setting,value
C=CC(=O)N1CCN2c3c(c(=O)n(-c4c(C)ccnc4C(C)C)c4c(=O)n(-c5c(N)c(Cl)cc(Cl)c5F)c(C(F)(F)F)cc34)OCC[C@H]2C1 [Compound 1D],IC50,NCI-H358 cells,0.917 nM
same,Tumor volume (Day 0),[1]; 3 mg/kg PO QD × 3 weeks,151 mm^3
same,RTV (Day 20),[1]; 3 mg/kg PO QD × 3 weeks,5.32
same,T/C (%) (Day 20),[1]; 3 mg/kg PO QD × 3 weeks,58.0%
same,T/Cweight,[1]; 3 mg/kg PO QD × 3 weeks,61.6%
same,TGI (%) (Day 20),[1]; 3 mg/kg PO QD × 3 weeks,45.4%
same,Tumor volume (Day 20),[1]; 3 mg/kg PO QD × 3 weeks,788 mm^3
same,Tumor weight (Day 20),[1]; 3 mg/kg PO QD × 3 weeks,0.832 ± 0.102 g
same,Tumor volume (Day 0),[1]; 10 mg/kg PO QD × 3 weeks,151 mm^3
same,RTV (Day 20),[1]; 10 mg/kg PO QD × 3 weeks,2.43
same,T/C (%) (Day 20),[1]; 10 mg/kg PO QD × 3 weeks,26.5%
same,T/Cweight,[1]; 10 mg/kg PO QD × 3 weeks,30.1%
same,TGI (%) (Day 20),[1]; 10 mg/kg PO QD × 3 weeks,80.5%
same,Tumor volume (Day 20),[1]; 10 mg/kg PO QD × 3 weeks,379 mm^3
same,Tumor weight (Day 20),[1]; 10 mg/kg PO QD × 3 weeks,0.406 ± 0.095 g
same,Tumor volume (Day 0),[1]; 30 mg/kg PO QD × 3 weeks,151 mm^3
same,RTV (Day 20),[1]; 30 mg/kg PO QD × 3 weeks,1.02
same,T/C (%) (Day 20),[1]; 30 mg/kg PO QD × 3 weeks,11.1%
same,T/Cweight,[1]; 30 mg/kg PO QD × 3 weeks,12.0%
same,TGI (%) (Day 20),[1]; 30 mg/kg PO QD × 3 weeks,99.9%
same,Tumor volume (Day 20),[1]; 30 mg/kg PO QD × 3 weeks,152 mm^3
same,Tumor weight (Day 20),[1]; 30 mg/kg PO QD × 3 weeks,0.162 ± 0.023 g
